The values below come from patent US9556148B2, “N-cyanomethylamides as inhibitors of janus kinase” (CADILA HEALTHCARE LIMITED, priority 2013, dated 2017).

pIC50: −log10 of the molar value.

Assay [1] has as its system PGPS arthritis, PAW inflammation. Description: Peptidogylcan Polysaccharide Polymers (PGPS) arthritis. It counts as in vivo, Sprague dawley rats. Particulars: rats, values for day 16. As to the method:
Female Sprague dawley rats were primed with an intra-articular injection of 20 μl of PGPS at 0.5 mg/ml of rhamnose in the right ankle. At 2 weeks the ankle diameters were measured with plethysmometer and rats assigned to groups of similar distribution of initial joint diameters. Rats then received their first dose of compound followed 1 h later by an i.v. injection of 0.5 ml of PGPS (0.5 mg/ml of rhamnose) in the tail vein. Compounds were dosed at 10 mg/kg and ankle diameters measured for 3 days [i.e. day 15, 16, 17]. Values are given for day 16.

For assay [2], the target named is recombinant purified human JAK3 (Homo sapiens (Human), UniProt P52333). Description: in vitro JAK kinase assay on ADP Glo platform, JAK3. It counts as biochemical. Particulars: 50 μM ATP, 1 hr at room temperature; read-out: JAK-3 IC50. As to the method:
(§1) NCEs were screened using in vitro JAK (1, 2 and 3) kinase assay on ADP Glo platform (Promega). Fixed amount of recombinant purified human JAK (25 ng of JAK1 and 10 ng of JAK2 and JAK3 per reaction, from Life Technologies Ltd) were incubated with increasing concentration of NCEs in 1× kinase reaction buffer (40 mM Tris-Cl, pH7.5, 20 mM MgCl2, 0.1 mg/ml BSA and 50 μM DTT). Enzymatic reaction was initiated by adding a substrate cocktail containing 50 μM of ATP (final concentration) and 5 μg for JAK1 and 2.5 μg for JAK2 and JAK3 of polyGln4Tyr1 (Signal Chem) in total 25 μl of reaction in 96 well plate. The reaction was incubated at room temperature for 1 hr.
(§2) After 1 hr of incubation equal volume (25 μl per reaction) of ADP Glo was added and incubated at room temperature for 40 min.
(§3) This was followed by addition of kinase detection reagent (50 μl per reaction) and incubation at room temperature for 30 min. Finally, plate was read for luminescence at an integration time of 500 millisecond per well.
(§4) Data were plotted taking Enzyme with no inhibitor set as the 100% kinase activity. IC50 values were calculated using Graph Pad Prism software.
(In ADP-Glo the light output rises with the ADP produced.)

Assay [3] concerns the target recombinant purified human JAK1 (Homo sapiens (Human), UniProt P23458). In words: in vitro JAK kinase assay on ADP Glo platform, JAK1. It is filed as biochemical. Particulars: 50 μM ATP, 1 hr at room temperature. How it is done: as §1, §2, §3, §4
Assay [4] deals with recombinant purified human JAK2 (Homo sapiens (Human), UniProt O60674). Description: in vitro JAK kinase assay on ADP Glo platform, JAK2. It is filed as biochemical. As to conditions: 50 μM ATP, 1 hr at room temperature; read-out: JAK-2 IC50. How it is done: as §1, §2, §3, §4
Sequence of recombinant purified human JAK2 (O60674 whole entry): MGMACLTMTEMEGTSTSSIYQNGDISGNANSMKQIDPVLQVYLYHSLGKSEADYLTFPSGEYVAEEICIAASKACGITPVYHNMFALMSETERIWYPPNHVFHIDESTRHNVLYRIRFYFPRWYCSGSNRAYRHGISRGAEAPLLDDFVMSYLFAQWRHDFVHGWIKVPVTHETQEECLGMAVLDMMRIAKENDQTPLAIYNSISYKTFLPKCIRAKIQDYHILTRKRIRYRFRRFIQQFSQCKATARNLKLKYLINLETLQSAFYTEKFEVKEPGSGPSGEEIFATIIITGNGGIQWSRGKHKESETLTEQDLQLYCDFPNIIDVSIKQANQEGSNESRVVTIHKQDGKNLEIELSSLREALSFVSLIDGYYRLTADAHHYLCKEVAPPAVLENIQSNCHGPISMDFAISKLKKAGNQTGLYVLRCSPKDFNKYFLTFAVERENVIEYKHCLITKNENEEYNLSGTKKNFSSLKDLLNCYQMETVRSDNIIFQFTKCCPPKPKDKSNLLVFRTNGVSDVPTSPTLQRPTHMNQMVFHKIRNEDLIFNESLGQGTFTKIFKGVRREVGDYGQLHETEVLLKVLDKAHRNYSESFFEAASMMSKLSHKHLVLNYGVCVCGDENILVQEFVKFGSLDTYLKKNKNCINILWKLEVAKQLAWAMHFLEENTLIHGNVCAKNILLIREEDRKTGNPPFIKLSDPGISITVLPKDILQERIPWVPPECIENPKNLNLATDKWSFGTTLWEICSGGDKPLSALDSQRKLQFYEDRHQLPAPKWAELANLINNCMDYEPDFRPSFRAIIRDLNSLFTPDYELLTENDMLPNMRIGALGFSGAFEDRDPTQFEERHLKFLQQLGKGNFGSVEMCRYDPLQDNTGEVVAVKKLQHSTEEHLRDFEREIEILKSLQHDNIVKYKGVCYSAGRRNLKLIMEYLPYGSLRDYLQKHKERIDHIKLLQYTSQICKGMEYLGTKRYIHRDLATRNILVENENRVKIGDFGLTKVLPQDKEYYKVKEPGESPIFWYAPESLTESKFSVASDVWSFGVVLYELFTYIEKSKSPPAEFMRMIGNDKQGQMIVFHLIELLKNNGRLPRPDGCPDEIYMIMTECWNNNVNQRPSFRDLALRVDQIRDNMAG
Another assay concerns the target JAK-3 (Homo sapiens (Human), UniProt P52333). Particulars: reported in WO 2008109943; read-out: reported in vitro JAK-3 inhibition; cited from earlier work.
A further assay addresses JAK 2 (Homo sapiens (Human), UniProt O60674). Particulars: reported in WO 2008109943; read-out: reported in vitro JAK 2 inhibition; cited from earlier work.

Sequence of recombinant purified human JAK3 (P52333 whole entry): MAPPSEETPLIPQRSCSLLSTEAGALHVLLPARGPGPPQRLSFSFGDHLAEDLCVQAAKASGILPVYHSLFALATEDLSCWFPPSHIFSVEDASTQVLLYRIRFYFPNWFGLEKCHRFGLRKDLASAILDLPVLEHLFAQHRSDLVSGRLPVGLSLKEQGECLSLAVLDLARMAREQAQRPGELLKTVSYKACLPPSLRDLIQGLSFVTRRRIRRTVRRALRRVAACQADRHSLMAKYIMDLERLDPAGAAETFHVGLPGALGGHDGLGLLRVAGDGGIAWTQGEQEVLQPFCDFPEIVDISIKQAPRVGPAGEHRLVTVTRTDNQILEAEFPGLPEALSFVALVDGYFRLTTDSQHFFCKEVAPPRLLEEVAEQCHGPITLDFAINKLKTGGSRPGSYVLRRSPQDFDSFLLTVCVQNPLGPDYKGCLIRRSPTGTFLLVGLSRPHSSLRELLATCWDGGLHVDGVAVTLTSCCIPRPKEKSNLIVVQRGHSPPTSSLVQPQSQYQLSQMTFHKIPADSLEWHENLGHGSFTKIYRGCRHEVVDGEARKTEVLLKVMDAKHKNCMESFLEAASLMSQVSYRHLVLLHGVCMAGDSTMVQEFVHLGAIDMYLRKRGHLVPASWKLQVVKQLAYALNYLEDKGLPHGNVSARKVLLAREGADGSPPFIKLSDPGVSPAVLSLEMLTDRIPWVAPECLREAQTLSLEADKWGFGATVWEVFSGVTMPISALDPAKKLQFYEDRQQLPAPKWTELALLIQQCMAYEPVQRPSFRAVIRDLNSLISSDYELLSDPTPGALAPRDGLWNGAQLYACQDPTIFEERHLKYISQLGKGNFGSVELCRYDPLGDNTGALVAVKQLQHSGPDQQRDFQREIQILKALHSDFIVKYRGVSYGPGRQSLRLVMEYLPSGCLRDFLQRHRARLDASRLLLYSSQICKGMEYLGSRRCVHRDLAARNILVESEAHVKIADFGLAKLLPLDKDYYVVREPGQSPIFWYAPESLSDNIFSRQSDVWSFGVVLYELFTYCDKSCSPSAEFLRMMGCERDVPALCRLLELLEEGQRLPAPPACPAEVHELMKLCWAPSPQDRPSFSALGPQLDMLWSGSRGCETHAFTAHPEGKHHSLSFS
Sequence of recombinant purified human JAK1 (P23458 whole entry): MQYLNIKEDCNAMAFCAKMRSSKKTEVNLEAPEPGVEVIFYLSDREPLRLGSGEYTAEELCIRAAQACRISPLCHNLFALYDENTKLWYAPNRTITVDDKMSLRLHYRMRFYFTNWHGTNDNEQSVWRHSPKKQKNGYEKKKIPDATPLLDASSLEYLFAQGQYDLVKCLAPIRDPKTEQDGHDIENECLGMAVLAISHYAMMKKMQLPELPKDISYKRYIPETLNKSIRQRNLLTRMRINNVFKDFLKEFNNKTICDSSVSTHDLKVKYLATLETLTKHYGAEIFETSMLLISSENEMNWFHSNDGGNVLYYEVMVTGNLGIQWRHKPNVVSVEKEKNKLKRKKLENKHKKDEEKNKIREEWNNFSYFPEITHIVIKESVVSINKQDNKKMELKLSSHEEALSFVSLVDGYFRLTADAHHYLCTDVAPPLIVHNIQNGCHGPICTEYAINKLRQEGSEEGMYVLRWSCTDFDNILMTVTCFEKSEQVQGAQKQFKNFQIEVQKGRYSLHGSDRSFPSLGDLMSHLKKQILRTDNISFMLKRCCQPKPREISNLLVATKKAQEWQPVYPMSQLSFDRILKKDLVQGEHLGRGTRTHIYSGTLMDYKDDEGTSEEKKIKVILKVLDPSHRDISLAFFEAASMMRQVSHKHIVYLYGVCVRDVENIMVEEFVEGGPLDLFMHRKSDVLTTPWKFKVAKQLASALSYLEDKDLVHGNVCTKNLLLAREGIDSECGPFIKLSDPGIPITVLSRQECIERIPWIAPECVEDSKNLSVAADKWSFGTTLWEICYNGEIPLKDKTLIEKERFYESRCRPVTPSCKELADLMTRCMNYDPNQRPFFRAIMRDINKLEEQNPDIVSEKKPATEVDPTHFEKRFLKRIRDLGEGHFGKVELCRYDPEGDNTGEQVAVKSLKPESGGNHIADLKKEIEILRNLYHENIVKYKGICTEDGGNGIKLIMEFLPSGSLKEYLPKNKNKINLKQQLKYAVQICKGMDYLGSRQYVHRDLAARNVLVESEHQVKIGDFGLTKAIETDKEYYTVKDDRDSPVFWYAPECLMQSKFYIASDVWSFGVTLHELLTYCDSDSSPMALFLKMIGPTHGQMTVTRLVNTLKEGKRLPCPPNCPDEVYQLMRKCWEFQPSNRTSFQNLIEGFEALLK
Sequence of JAK-3 (P52333 whole entry, species assumed): as the sequence (P52333 whole entry) above
Sequence of JAK 2 (O60674 whole entry, species assumed): as the sequence (O60674 whole entry) above

In the case of `N#CCNC(=O)c1ccc(-c2ccnc(Nc3ccc(N4CCC(c5n[nH]c(=O)o5)CC4)cc3)n2)cc1` [Example 29, N-(cyanomethyl)-4-(2-((4-(4-(5-oxo-4,5-dihydro-1,3,4-oxadiazol-2-yl)piperidin-1-yl)phenyl)amino)pyrimidin-4-yl)benzamide], the “% Reduction in PAW inflammation at dose 10 mg/Kg” value (shortened to “% Reduction in PAW inflammation”) in assay [1] is listed as 43%. The pIC50 is 7.25 in assay [2], 7.82 in assay [3] and 7.68 in assay [4].

Regarding `N#CCNC(=O)c1ccc(-c2ccnc(Nc3ccc(ON4CCC(N5CCCC5)CC4)cc3)n2)cc1` [compounds 2], the pIC50 at JAK-3 was greater than 4.70; at JAK 2 it was greater than 6.00.

`N#CCNC(=O)c1ccc(-c2ccnc(Nc3ccc(N4CCC(N5CC6CC(C5)O6)CC4)cc3)n2)cc1` [Example 17, 4-(2-((4-(4-(6-oxa-3-azabicyclo[3.1.1]heptan-3-yl)piperidin-1-yl)phenyl)amino)pyrimidin-4-yl)-N-(cyanomethyl)benzamide]: the “% Reduction in PAW inflammation” value in assay [1] was 57%. For the same molecule, the pIC50 is 7.16 in assay [2], 7.89 in assay [3] and 8.10 in assay [4].

Take `N#CCNC(=O)c1ccc(-c2ccnc(Nc3ccc(N4CCN(C5CCS(=O)(=O)CC5)CC4)cc3)n2)cc1` [Example 7, N-(cyanomethyl)-4-(2-((4-(4-(1,1-dioxidotetrahydro-2H-thiopyran-4-yl)piperazin-1-yl)phenyl)amino)pyrimidin-4-yl)benzamide]: the pIC50 in assay [2] was 7.21; in assay [3] it was 7.85; in assay [4], 7.92.

As for `N#CCNC(=O)c1ccc(-c2ccnc(Nc3ccc(N4CCC(N5CCCC5=O)CC4)cc3)n2)cc1` [Example 1, N-(cyanomethyl)-4-(2-((4-(4-(2-oxopyrrolidin-1-yl)piperidin-1-yl)phenyl)amino)pyrimidin-4-yl)benzamide], the “% Reduction in PAW inflammation” value in assay [1] was 51%. Further, the pIC50 in assay [2] was 7.14; in assay [3], 7.92.

With `N#CCNC(=O)c1ccc(-c2ccnc(Nc3ccc(N4CCC(n5cncn5)CC4)cc3)n2)cc1` [Example 4, 4-(2-((4-(4-(1H-1,2,4-triazol-1-yl)piperidin-1-yl)phenyl)amino)pyrimidin-4-yl)-N-(cyanomethyl)benzamide], in assay [1], the “% Reduction in PAW inflammation” value is reported as 52%. Further, the pIC50 in assay [2] was 7.18; in assay [3], 7.68; in assay [4], 7.77.

Consider `N#CCNC(=O)c1ccc(-c2ccnc(Nc3ccc(N4CCC(N5CCC6(CCCO6)CC5)CC4)cc3)n2)cc1` [Example 24, 4-(2-((4-(4-(1-oxa-8-azaspiro[4.5]decan-8-yl)piperidin-1-yl)phenyl)amino)pyrimidin-4-yl)-N-(cyanomethyl)benzamide], for which the “% Reduction in PAW inflammation” value in assay [1] was 41%. For the same molecule, the pIC50 in assay [2] was 7.64; in assay [3] it was 8.30; in assay [4], 8.30.

On to `Cc1nnc(C2CCN(c3ccc(Nc4nccc(-c5ccc(C(=O)NCC#N)cc5)n4)cc3)CC2)o1` [Example 25, N-(cyanomethyl)-4-(2-((4-(4-(5-methyl-1,3,4-oxadiazol-2-yl)piperidin-1-yl)phenyl)amino)pyrimidin-4-yl)benzamide], for which the “% Reduction in PAW inflammation” value in assay [1] is 63%. Further, the pIC50 in assay [3] was 7.92.

Regarding `N#CCNC(=O)c1ccc(-c2ccnc(Nc3ccc(N4CCC(N5CCOCC5)CC4)cc3)n2)cc1` [Example 3, N-(cyanomethyl)-4-(2-((4-(4-morpholinopiperidin-1-yl)phenyl)amino)pyrimidin-4-yl)benzamide], the “% Reduction in PAW inflammation” value in assay [1] worked out at 56%.
